# Assay results as given in PMC3758310, “The Human Cathelicidin LL-37 Has Antiviral Activity against Respiratory Syncytial Virus” (PLoS ONE, 2013).
# Experiments:
# [1] = tested on: RSV-infected HEp-2 cells; assay: MTT assay of viable metabolically active RSV-infected HEp-2 cells (cytopathic effects); type: cell-based; details: for viable HEp-2 cells surviving RSV infection at 5 days, pre-treatment condition: simultaneous RSV MOI = 0.005 and LL-37 0–50 µg/ml, scrambled LL-37 50 µg/ml or ribavirin 200 µM for 2 hours, 5 days without treatment; for protection of RSV-infected HEp-2 cells from cell death at 5 days, continuous treatment condition: treatment re-added after wash and present for 5 days, ribavirin 200 µM, LL-37 p<0.01, ribavirin p<0.001 vs untreated infected
# Method: HEp-2 cells were treated with LL-37, a scrambled control LL-37 at 50 µg/ml or ribavirin (200 µM; Sigma Aldrich), in the presence or absence of simultaneous infection with RSV (MOI = 0.005). Cells were incubated for 2 hours at 37°C, washed and placed in fresh media. In some wells LL-37 or ribavirin was added again at this point (for “continuous treatment”). Cells were cultured at 37°C for 24 hours or 5 days, after which the number of viable metabolically active cells was assessed using an MTT assay (Sigma Aldrich) according to manufacturer's instructions (7.5 mg/ml, 37°C, 4 hours). Resulting formazan was dissolved in dimethylsulfoxide (Sigma Aldrich) and optical density was measured at 450 nm. Alternatively, cells simultaneously treated with or without LL-37 in presence or absence of RSV infection were allowed to dry for 10 minutes before they were fixed and permeabilised using ice-cold acetone/methanol (1∶1) for 10 minutes at 4°C. After a wash with PBS, cells were subjected to TUNEL assay using an In situ cell death kit (Roche Applied Science, UK) according to manufacturer's instructions. Cells were washed three times with PBS and 1 µg/ml DAPI was included in the second wash (3 minutes staining). Cells were examined by fluorescent microscopy, four representative images per well were captured using an EVOS fl imaging system (PEQLAB Ltd) and TUNEL positive and negative cells were quantified using ImageJ (http://rsbweb.nih.gov/ij/index.html).
# [2] = tested on: RSV viral particles; assay: Direct viral inactivation assay; type: cell-based, RSV strain A2
# Method: A modified viral inactivation assay was performed. 1 ml RSV (PFU = 2×10^3, equivalent to MOI = 0.05) was mixed with 25 µg/ml LL-37, followed by immediate 10-fold dilution in serum-free medium to reach sub-therapeutic concentrations of LL-37 (2.5 µg/ml) and RSV MOI = 0.005. 25 µg/ml scrambled LL-37 or PBS were used as negative controls. HEp-2 monolayers were infected with this virus/peptide mixture for 2 hours then washed, before cells were cultured in serum-free medium for 24 hours. Fixed monolayers were subjected to immunoplaque assay.
# [3] = tested on: RSV; assay: Production of new infectious viral particles (supernatant transfer to fresh HEp-2 cells, immunoplaque assay); type: cell-based, RSV strain A2
# Method: (§1) An immunoplaque assay (based on) was used to quantify RSV infected cells. Optimisation of the infection protocol was conducted using serial dilutions of RSV to assess the PFU of propagated virus stocks and establish an optimal MOI of 0.005 that allowed reliable counting of individual infected cells (approximately 100–250 per well) in a control infected culture at 24 hours. Peptide treatments were therefore primarily evaluated at RSV MOI = 0.005, however higher MOIs (up to 1) were also tested and similar effects of peptides were observed (data not shown). […] Cells were stained using 3-amino-ethylcarbazole substrate (Invitrogen/Life technologies) according to manufacturer's instructions for 15 minutes, washed 3 times with PBS and infected RSV positive foci were quantified by light microscopy, counting 3–4 wells per condition. […] Quantification was performed using the ImageJ plugin Treshold_colour to measure the percentage of cells positive for RSV infection. 3 wells were assessed per condition, using 4 random fields of view captured per well. To assess the production of infectious viral particles, supernatants were serially diluted and transferred to fresh HEp-2 monolayers, incubated for 2 hours at 37°C, washed, incubated for a further 24 hours and then assessed by immunoplaque assay.
# [4] = tested on: RSV; assay: Immunoplaque assay of RSV-infected 16HBE14o- cells at 24 hours; type: cell-based, RSV strain A2; details: RSV MOI = 0.005, simultaneous peptide and virus 2 hours, washed, n = 3-5
# Method: (§2) HEp-2 cells (ATCC CCL-23), Vero cells (ATCC CCL-81) and 16HBE14o^- transformed human bronchial epithelial cells (a kind gift from Dieter Gruenert, University of California) were cultured in DMEM/F12 (Gibco/Life Technologies Ltd, Paisley, UK) or RPMI (Gibco) respectively, supplemented with 2 mM L-glutamine (PAA Laboratories, Yeovil, UK) and 10% FCS (Biosera, East Sussex, UK), at 37°C and 5% CO2. 16HBE14o^- cells were cultured on wells previously coated with a basement layer of collagen IV (5 µg/ml), fibronectin (10 µg/ml) and bovine serum albumin (100 µg/ml) (all Sigma Aldrich, Dorset, UK).
# (§3) An immunoplaque assay (based on) was used to quantify RSV infected cells. […] Peptide treatments were therefore primarily evaluated at RSV MOI = 0.005, however higher MOIs (up to 1) were also tested and similar effects of peptides were observed (data not shown). […] Cells were stained using 3-amino-ethylcarbazole substrate (Invitrogen/Life technologies) according to manufacturer's instructions for 15 minutes, washed 3 times with PBS and infected RSV positive foci were quantified by light microscopy, counting 3–4 wells per condition. […] Quantification was performed using the ImageJ plugin Treshold_colour to measure the percentage of cells positive for RSV infection. 3 wells were assessed per condition, using 4 random fields of view captured per well. […]
# [5] = tested on: HEp-2 cells; assay: MTT assay of uninfected HEp-2 cells; type: cell-based, human; details: LL-37 ≤50 µg/ml, 2 hours, washed, n = 3-4
# Method: (§4) HEp-2 cells were treated with LL-37, a scrambled control LL-37 at 50 µg/ml or ribavirin (200 µM; Sigma Aldrich), in the presence or absence of simultaneous infection with RSV (MOI = 0.005). Cells were incubated for 2 hours at 37°C, washed and placed in fresh media. In some wells LL-37 or ribavirin was added again at this point (for “continuous treatment”). Cells were cultured at 37°C for 24 hours or 5 days, after which the number of viable metabolically active cells was assessed using an MTT assay (Sigma Aldrich) according to manufacturer's instructions (7.5 mg/ml, 37°C, 4 hours). Resulting formazan was dissolved in dimethylsulfoxide (Sigma Aldrich) and optical density was measured at 450 nm. Alternatively, cells simultaneously treated with or without LL-37 in presence or absence of RSV infection were allowed to dry for 10 minutes before they were fixed and permeabilised using ice-cold acetone/methanol (1∶1) for 10 minutes at 4°C. After a wash with PBS, cells were subjected to TUNEL assay using an In situ cell death kit (Roche Applied Science, UK) according to manufacturer's instructions. […] Cells were examined by fluorescent microscopy, four representative images per well were captured using an EVOS fl imaging system (PEQLAB Ltd) and TUNEL positive and negative cells were quantified using ImageJ (http://rsbweb.nih.gov/ij/index.html).
# [6] = tested on: RSV; assay: Immunoplaque assay of RSV-infected HEp-2 cells at 24 hours; type: cell-based, RSV strain A2; details: for reduction in number of infected cells: then 2 hours infection
# Method: RSV strain A2 (VR-1540) was purchased from ATCC. RSV was propagated in HEp-2 cells by infecting 5×10^6 cells that were allowed to grow on confluent overnight in serum-free VP-SFM media (Gibco) for 2 hours with 0.1 plaque forming units (PFU) followed by removal of inoculum. Cells were then incubated for 24 hours in 10% FCS Gold (PAA Laboratories) supplemented VP-SFM. Cells were then incubated for a further 5 days in 2% FCS Gold supplemented VP-SFM, cells were harvested and supernatant was snap-frozen and stored at −80°C.
# An immunoplaque assay (based on) was used to quantify RSV infected cells. Optimisation of the infection protocol was conducted using serial dilutions of RSV to assess the PFU of propagated virus stocks and establish an optimal MOI of 0.005 that allowed reliable counting of individual infected cells (approximately 100–250 per well) in a control infected culture at 24 hours. Peptide treatments were therefore primarily evaluated at RSV MOI = 0.005, however higher MOIs (up to 1) were also tested and similar effects of peptides were observed (data not shown). For experimental assessment of the antiviral effects of peptides, cells were seeded at 2×10^4 per well in 96-well plates and cultured overnight, then washed and infected, in fresh serum-free medium. After 2 hours, inoculum was removed and cells were cultured in fresh medium for 24, 48 or 72 hours before analysis. Peptides were added before, after or concomitantly with RSV infection as described for individual experiments. Monolayers were fixed in absolute methanol/2% hydrogen peroxide solution for 30 minutes and washed twice with PBS. Cells were exposed to monoclonal biotinylated anti-RSV antibody in 5% BSA/PBS for 1 hour (1∶200, AbD Serotec, Kidlington, UK), washed twice with PBS and were incubated with extravidin peroxidase in 5% BSA/PBS for 30 minutes (1∶500, Sigma Aldrich). Cells were stained using 3-amino-ethylcarbazole substrate (Invitrogen/Life technologies) according to manufacturer's instructions for 15 minutes, washed 3 times with PBS and infected RSV positive foci were quantified by light microscopy, counting 3–4 wells per condition. For later timepoint analysis (48 and 72 hours post infection with RSV MOI = 0.0005), fixed and stained monolayers were examined by light microscopy and images were captured using an EVOS fl imaging system (PEQLAB Ltd, UK). Quantification was performed using the ImageJ plugin Treshold_colour to measure the percentage of cells positive for RSV infection. 3 wells were assessed per condition, using 4 random fields of view captured per well. To assess the production of infectious viral particles, supernatants were serially diluted and transferred to fresh HEp-2 monolayers, incubated for 2 hours at 37°C, washed, incubated for a further 24 hours and then assessed by immunoplaque assay.
# [7] = tested on: HEp-2 cells; assay: TUNEL assay of cell death in HEp-2 cells; type: cell-based, human; details: in the presence or absence of RSV or LL-37, 24 hours after infection; data not shown
# Method: as §4
# [8] = tested on: RSV; assay: Immunoplaque assay of RSV-infected Vero cells (type I interferon deficient) at 24 hours; type: cell-based, RSV strain A2; details: 25 µg/ml simultaneous with RSV MOI = 0.005 for 2 hours, p<0.001, n = 3-5
# Method: as §2, §3
# [9] = tested on: RSV; assay: Spread of RSV infection in HEp-2 cultures over 48 and 72 hours (immunoplaque, image analysis); type: cell-based, RSV strain A2; details: washed, 48 or 72 hours, n = 3
# Method: as §1
compound,measurement,setting,value
"NC(=O)c1ncn([C@@H]2O[C@H](CO)[C@@H](O)[C@H]2O)n1 [ribavirin, reference compound]","viable HEp-2 cells surviving RSV infection at 5 days, pre-treatment condition","[1]; washed, n = 3-4",Neither scrambled LL-37 nor the antiviral ribavirin had any direct effect
same,"protection of RSV-infected HEp-2 cells from cell death at 5 days, continuous treatment condition",[1],significant protection of epithelial cells from cell death
LL-37: active form of the sole human cathelicidin hCAP-18; cationic host defence peptide,antiviral effect of virus and cell exposure to 2.5 µg/ml LL-37,"[2]; RSV MOI = 0.005 pre-mixed with 2.5 µg/ml LL-37 before immediate use, HEp-2, 24 hours",no significant effects
same,antiviral effect of virus exposure to 25 µg/ml peptide followed by 1 in 10 dilution (cell exposure 2.5 µg/ml),"[2]; RSV MOI = 0.05 pre-mixed with 25 µg/ml, immediate 1:10 dilution, HEp-2 infected 2 hours, 24 hours, immunoplaque, n≥3",significant antiviral effects
same,infectivity of supernatant at day 3 with LL-37 remaining in the media (continuous),"[3]; 25 µg/ml LL-37 replaced after wash, 3 days, p<0.05",reducing infectivity up to day 3
same,production of new infectious viral particles,"[3]; HEp-2, RSV with 25 µg/ml peptide 2 hours, washed, fresh media with or without peptide, supernatant infectivity on fresh HEp-2, p<0.001, n = 3","very substantially, fewer new infectious viral particles"
same,antiviral effect (number of RSV-infected cells relative to untreated infected cells),[4],The same effect was observed
same,number of metabolically active uninfected HEp-2 cells after 5 days,[5],did not affect the number of metabolically active HEp-2 cells
same,decrease in the number of initially infected cells,"[6]; 25 µg/ml LL-37, in vitro",approximately 1 log
same,antiviral activity against RSV in HEp-2 cells,"[6]; 25 µg/ml simultaneous with RSV MOI = 0.005 for 2 hours, 24 hours, p<0.001, n = 3-5",identical significant antiviral activity
same,"LL-37 concentration giving significant, concentration-dependent reduction in infectivity (number of RSV-infected cells)","[6]; HEp-2, RSV MOI = 0.005, simultaneous peptide and virus 2 hours, washed, 24 hours at 37°C, p<0.05 vs virus alone, mean of n = 3-5",≥ 10 µg/mL
same,"antiviral effect, LL-37 treatment delayed until 2 hours after viral infection (Virus first)","[6]; HEp-2, RSV MOI = 0.005 for 2 hours, washed, then 1 hour LL-37, infected cells at 24 hours",loss of the antiviral effect
same,reduction in number of infected cells,"[6]; HEp-2, RSV preincubated with 25 µg/ml LL-37 for 1 hour at 4°C, 24 hours, p<0.001",approximately 1 log
same,reduction in number of infected cells,"[6]; HEp-2, RSV preincubated with 25 µg/ml LL-37 for 1 hour at 37°C, 24 hours, p<0.01",approximately 1 log
same,antiviral activity of full length and 22-mer partial peptides (number of infected cells),"[6]; HEp-2, simultaneous RSV MOI = 0.005 and peptide at 1, 10 and 25 µg/ml for 2 hours, washed, 24 hours, n = 3",significant antiviral activity
same,protection against RSV infection when infection delayed up to 3 hours after LL-37 treatment and cell washing,"[6]; HEp-2 pre-treated 25 µg/ml LL-37 1 hour, washed, RSV MOI = 0.005 at 1 or 3 hours, p<0.001, n≥3",significant protection against RSV infection
same,protection against RSV infection when infection delayed 24 hours after LL-37 treatment and cell washing,"[6]; HEp-2 pre-treated 25 µg/ml LL-37 1 hour, washed, RSV MOI = 0.005 at 24 hours",no protection evident
same,RSV infection after pre-incubation of cells with LL-37 and washing (LL-37 first),"[6]; HEp-2 treated with LL-37 1 hour, washed, 2 hour RSV infection MOI = 0.005, 24 hours, p<0.001",significantly less RSV infection
same,TUNEL positive HEp-2 cells,[7],0.5–1.5%
same,antiviral activity against RSV in Vero cells,[8],identical significant antiviral activity
same,number of metabolically active RSV-infected HEp-2 cells at 24 hours,"[1]; LL-37 ≤50 µg/ml, RSV MOI = 0.005, 2 hours, washed, 24 hours, OD 450 nm, n = 3-4",did not have any substantial effect
same,"viable HEp-2 cells surviving RSV infection at 5 days, pre-treatment condition","[1]; washed, n = 3-4",significantly more viable HEp-2 cells surviving RSV infection in a dose-dependent manner
same,"protection of RSV-infected HEp-2 cells from cell death at 5 days, continuous treatment condition",[1],significant protection of epithelial cells from cell death
same,"spread of infection beyond initially infected cells, LL-37 added after RSV infection (virus first)","[9]; HEp-2, RSV MOI = 0.0005 2 hours, 25 µg/ml LL-37 1 hour",spread of infection beyond the cells initially infected was minimised
same,"spread of infection beyond initially infected cells, peptide added simultaneously with RSV","[9]; HEp-2, RSV MOI = 0.0005, 25 µg/ml peptide 2 hours",spread of infection beyond the cells initially infected was minimised
